# Assay results taken from patent publication US20210000988A1, “PHARMACEUTICAL COMPOSITION CONTAINING 211AT-LABELED AMINO ACID DERIVATIVE, AND METHOD FOR PRODUCING SAID PHARMACEUTICAL COMPOSITION” (OSAKA UNIVERSITY, priority 2018, published 2021).
# How the values were obtained:
# [1] = system: human pancreatic cancer cell line (PANC-1); test: Cell-killing effect (cell survival rate); format: cell-based; conditions: PANC-1 cells
# From the text: 4. Examination of cell-killing effect of ^211At-AAMT A cell survival rate of the human pancreatic cancer cell line (PANC-1) administered with ^211At-AAMT under the same conditions as in Example 3 is shown in FIG. 6. […] On the other hand, the cellular uptake of ^211At-AAMT was reduced in the presence of the inhibitor BCH or methyltyrosine.
# [2] = system: human pancreatic cancer cell line (PANC-1); test: Cellular uptake / accumulation in cancer cells (radiation dose remaining in the cells); format: cell-based
# Description: A human pancreatic cancer cell line (PANC-1) was treated with ^211At-AAMT and cultured for a predetermined time. Then, the cells were washed to remove unincorporated ^211At-AAMT. The cellular uptake of ^211At-AAMT was measured from the radiation dose remaining in the cells.
# Further, an effect of ascorbic acid on the cellular accumulation of ^211At-AAMT was also examined. The measurement result of the radiation dose in the human pancreatic cancer cell line in the absence and presence of ascorbic acid is shown in FIG. 5.
# [3] = Image analysis of in vivo localization in the normal rat using a gamma camera
# [4] = Effect of ascorbic acid on biodistribution in normal mice (organ radioactivity, gamma counter); format: in vivo, ddY mice; conditions: intravenous, one hour, 1% ascorbic acid addition group compared with ascorbic acid free group
# From the text: Next, an effect of ascorbic acid on biodistribution of ^211At-AAMT in the mouse body was compared. ddY mice (male, 5 weeks old) purchased from Japan SLC, Inc. were used after being acclimated for one week (6 weeks old at the time of experiment). ^211At-AAMT with 1% ascorbic acid or without ascorbic acid was intravenously injected in normal mice (N=3), and the mice were dissected after one hour. The organs were all put in polyethylene bags with zipper (A-4, 0.04 mm, SEISANNIPPONSHA Ltd.), and radioactivity of the organs was measured using Wizard^2 gamma counter (PerkinElmer).
# [5] = SPECT imaging in normal rats; format: in vivo, rats (Wister); conditions: intravenous, 1 MBq, without ascorbic acid, 20 minutes to 1 hour
# Description: Normal rats (Wister, 3 months old, male, 3 animals, body weight of 289.8±5.5 g) were intravenously injected with ^211At-AAMT (without ascorbic acid, 1 MBq), and SPECT imaging was performed after from 20 minutes to 1 hour. Imaging was performed using a gamma camera E-Cam (Siemens) (imaging time: 20 minutes, collimator: low energy all purpose, pixel size: 2.4 mm×2.4 mm×2.4 mm (SPECT), matrix: 128×128).
# [6] = system: Melanoma cells B16F10; test: Treatment effect on melanoma metastasis to lung (nodule count and body weight); format: in vivo, C57BL/6 mice; conditions: B16F10 transplanted mice, intravenous
# From the text: C57BL/6 mice (female, 5 weeks old) purchased from Japan SLC, Inc. were used in the experiment after being acclimated in a breeding space for one week. Melanoma cells B16F10 (a high lung-metastatic cell line cloned from B16, RIKEN cell bank) were maintained in a D-MEM medium (high glucose, Sigma-Aldrich) supplemented with 10% fetal bovine serum (Gibco) and 1% antibiotics (100×, FUJIFILM Wako Pure Chemical Corp.). These cells in an amount of 2×10^5 cells were intravenously transplanted in each mouse. On the following day, the mice (N=5) was intravenously injected with ^211At-AAMT (with 1% ascorbic acid) at a dose of 0.0 MBq (control group), 0.1 MBq, or 1 MBq. Fourteen days later, the mice were dissected, and the number of nodules spread to the lung was visually counted. The results of the number of the nodules and a change in the body weight thus obtained were shown in FIG. 11 and FIG. 12, respectively.
# [7] = In vitro stability by thin-layer chromatography (TLC), with and without sodium ascorbate; format: physicochemical
# From the text: The stability of ^211At-AAMT synthesized in Example 1 was compared in the presence and absence of sodium ascorbate using thin-layer chromatography (TLC).
# [8] = system: human pancreatic cancer cell line (PANC-1); test: Administration to cancer-bearing mouse (tumor size and body weight); format: in vivo; conditions: PANC-1 cancer-bearing mouse, intravenous, 0.6 MBq per mouse, 7 days after administration
# From the text: A cancer-bearing mouse created by using the human pancreatic cancer cell line (PANC-1) was intravenously administered with ^211At-AAMT at a dose of 0.6 MBq per mouse. A change in the tumor size caused by the administration is shown in FIG. 8(A), while a change in the body weight of the cancer-bearing mouse is shown in FIG. 8(B).
# [9] = In vivo stability: TLC of blood and urine after intravenous injection in normal rats; conditions: ascorbic acid 1% final concentration, after one hour
# Description: ^211At-AAMT to which ascorbic acid was added at a final concentration of 1% was intravenously injected in normal rats, and, after one hour, blood and urine were collected and analyzed by thin-layer chromatography (TLC). As a thin layer plate, silica gel G60F254 (Merck KGaA) was used, and, as a development solvent, a mixture of butanol:water:acetic acid (4:1:1) was used (Nacalai Tesque, Inc.). The thin layer plate after development was analyzed by using a bioimaging analysis apparatus (Typhoon 7000, GE Healthcare) (FIG. 2). […] That is, it was shown that ^211At-AAMT to which ascorbic acid was added could stably exist in the living body without being metabolized or degraded.
# [10] = system: human pancreas cell line PANC-1; test: SPECT imaging in pancreatic cancer (PANC-1) transplanted mice; format: in vivo, Balb/c-nu/nu mice; conditions: PANC-1 transplanted mice (two animals), intravenous, 1 MBq, with 1% ascorbic acid, after 10 minutes
# Description: Balb/c-nu/nu mice (female, 5 weeks old) purchased from Japan SLC, Inc. were acclimated in a breeding space for one week. A human pancreas cell line PANC-1 (RIKEN cell bank), which was maintained in an RPMI 1640 medium (Sigma-Aldrich) supplemented with 10% fetal bovine serum (Gibco) and 1% antibiotics (100×, FUJIFILM Wako Pure Chemical Corp.), was adjusted to a concentration of 5×10^6 cells/100 μL. Subsequently, the cells were mixed with Matrigel (Growth Factor Reduced, BD) in a 1:1 ratio, and the mixture was transplanted to a subcutaneous region of the hinder back of a mouse using a syringe (FN syringe 27G, Terumo Corp.). Subsequently, after one-month follow-up observation, the mouse having a sufficiently large tumor size was used in the experiment. These pancreatic cancer transplanted mice (animal 1: 25.5 g, animal 2: 30.2 g) were intravenously injected with ^211At-AAMT (with 1% ascorbic acid, at a dose of 1 MBq each), and SPECT imaging was performed after 10 minutes. Imaging was performed using a gamma camera E-Cam (Siemens) (imaging time: 10 minutes, collimator: low energy all purpose, pixel size: 1.2 mm×1.2 mm, matrix: 256×256, zoom: 2-fold, energy window: 79±20%).
SMILES,cell survival rate with ^211At-AAMT in the presence of the inhibitor ([1]; competitor present),"uptake of ^211At-AAMT under competition with the inhibitor ([2]; PANC-1 cells, competitor added (Comparative example))",excretion [3],in vivo localization of radioactivity [3],cell-killing effect (cell survival rate) ([1]; same conditions as Example 3),cancer cell-killing activity on addition of ascorbic acid ([1]; with versus without ascorbic acid),accumulation in the stomach and the kidney [4],accumulation of radioactivity (SPECT) [5],body weight change ([6]; 0.1 MBq or 1 MBq with 1% ascorbic acid versus control group),"number of melanoma nodules in the lung ([6]; 0.1 MBq or 1 MBq with 1% ascorbic acid versus control, fourteen days later)",time in which almost all of the compound was degraded ([7]; in the absence of sodium ascorbate),stability over time ([7]; in the presence of sodium ascorbate),change in body weight [8],change in tumor size [8],radioactive species detected in blood and urine [9],time at which uptake reached the maximum value ([2]; PANC-1 cells),"increase of cellular uptake in the cancer cells by addition of ascorbic acid ([2]; PANC-1 cells, with versus without ascorbic acid)",accumulation in PANC-1 on addition of ascorbic acid ([2]; ascorbic acid 0.1% versus absence),visualization of the thyroid (SPECT) [10],visualization of the tumor (SPECT) [10]
"NC1(C(=O)O)CC2CCC1C2 (centres unmarked) [BCH, 2-aminobicyclo[2.2.1]heptane-2-carboxylic acid, reference compound]",a significant reduction in the cell survival rate was not observed,reduced,–,–,–,–,–,–,–,–,–,–,–,–,–,–,–,–,–,–
CC(N)(Cc1ccc(O)c([211At])c1)C(=O)O (centres unmarked) [^211At-AAMT],–,–,quick excretion of ^211At-AAMT by the kidney,accumulation of the radioactivity was observed in the kidney and its surrounding organs,nearly all of the cancer cells could be killed,increased,significantly reduced,accumulation of the radioactivity was observed in the thyroid and the stomach in all animals,no difference in the body weight change,decreased more in the group with more doses,about 40 minutes,could stably exist even after the lapse of seven or more hours,a substantial reduction of the body weight was not observed,a regression effect of the tumor was obtained,"only ^211At-AAMT was detected in both the blood and the urine, but free ^211At was not observed",about 10 minutes,increased about four times,significantly increased,the thyroid was not visualized,the tumors were clearly visualized in both cases
